According to PMC6454892 (Nature chemistry, 2018):

Test system: A. baumannii
Experiment: MIC screening against A. baumannii
Assay type: cell-based
Details: tested separately, unconjugated

CN[C@H](CC(C)C)C(=O)N[C@H]1C(=O)N[C@@H](CC(N)=O)C(=O)N[C@H]2C(=O)N[C@H]3C(=O)N[C@H](C(=O)N[C@H](C(=O)O)c4cc(O)cc(O)c4-c4cc3ccc4O)[C@H](O)c3ccc(c(Cl)c3)Oc3cc2cc(c3O[C@@H]2O[C@H](CO)[C@@H](O)[C@H](O)[C@H]2O[C@H]2C[C@](C)(N)[C@H](O)[C@H](C)O2)Oc2ccc(cc2Cl)[C@H]1O [vancomycin]
efficacy against A. baumannii (in words): ineffective
